In patent US20210086176A1, “Analyte Detection method” (The Board of Trustees of the Leland Stanford Junior …, priority 2017, published 2021):

How the values were obtained:
[1] = inhalation; cited from earlier work
[2] = in vivo; cited from earlier work
[3] = mouse, in vivo, po, 10 mg/kg

Question: Which “acetonitrile in inhaled air that can induce toxic effects” value [1] does the source give for `CC#N` [acetonitrile] here?
Answer: The value was 100 ppm.

Question: With `CCC(=O)C(CC(C)N(C)C)(c1ccccc1)c1ccccc1` (stereo not drawn) [methadone] as the compound, how does the “minimally effective plasma analgesic concentration (MEAC)” value [2] read?
Answer: The value was 60 ng/mL.

Question: With `Cc1nccn1CC1CCc2c(c3ccccc3n2C)C1=O` (stereo not drawn) [ondansetron] as the compound, how does the “slope of trend line, plasma (y) versus whole blood (x) ondansetron concentration” value [3] read?
Answer: The value was 0.973.
